Measurements as given in patent US9901596B2, “Regulation of body weight gain by using dibenzo-alpha-pyrones” (Natreon, Inc., priority 2013, dated 2018).

Legend:
Type in all cases: in vivo, C57/BL6 mice
[1] = Study 1: body weight gain in mice on standard laboratory diet, 12 weeks intragastric supplementation
Text: Materials Used: Shilajit (PrimaVie®, Natreon, Inc., New Brunswick, N.J.), a standardized dietary supplement ingredient extracted and processed from Shilajit bearing rocks, containing not less than about 50% by weight fulvic acids (FAs), at least about 10% by weight dibenzo-α-pyrone chromoproteins, and at least 0.3%, or more, by weight total dibenzo-α-pyrones (DBPs), 3-OH-DBP (99.0% purity, Natreon, Inc.), and 3,8-(OH)2-DBP (99.0% purity, Natreon, Inc) were used.
Three groups of adult C57/BL6 mice (n=8) were intragastrically supplemented with purified Shilajit (PS), 3,8-dihydroxy-dibenzo-α-pyrone (3,8-(OH)2-DBP) or placebo for 12 weeks. Body weight was measured every week. At the end of week 12, skeletal muscle tissue was harvested for gene profiling. Some tissue was stored for histology and HPLC analysis.
The control group of mice received DMSO in corn oil while the PS group received 100 mg of purified Shilajit/kg body weight of mice, dissolved in water and the DBP group received 10 mg of 3,8-(OH)2-DBP/kg body weight of mice, dissolved in DMSO/corn oil.
At week 12, the following tissues were collected: heart, lung, liver, brain, muscles, adipose tissue, skeletal muscle (vastus lateralis) and whole blood.

[2] = Study 2: body weight gain in mice on standard laboratory diet, 10 then 50 mg/kg DBPs; settings: for less body weight gain / less gain in body weight: 10 mg/kg b.w.; for less body weight gain: at 8 weeks; for less gain in body weight: at four weeks; for less weight gain: 3 weeks after increasing the dose to 50 mg/kg b.w. (from 13th week)
Description: Since the results from Study 1 were totally unexpected, Study 2 was carried out in order to validate the results from Study 1 and also to determine if another bioactive of Shilajit, 3-hydroxy-dibenzo-α-pyrone, may have a similar beneficial effect on controlling body weight gain. Study 2 was carried out under similar experimental conditions as Study 1, using standard laboratory diet, except that a 10 mg/kg body weight dose was administered for the first 12 weeks and then the dose was increased to 50 mg/kg body weight from the 13th week through the 19th week. The primary purpose of increasing the dose is to find out if the response is dose proportional. […] It is interesting to note that 3 weeks after increasing the dose of DBPs to 50 mg/kg b.w., 3-OH-DBP group still maintained about 45% less weight gain while the 3,8-(OH)2-DBP group retained only about 10% less weight gain. […] The secondary purpose of increasing the dose is to find out if increased dose is toxic. Different tissues were collected from the mice and toxicological examination will be conducted.

[3] = Study 3: body weight gain in mice on high fat diet, later switched to standard diet; settings: starting at 14 weeks, after switching to standard laboratory diet
Description: Since the Studies 1 and 2 were carried out with standard laboratory diet, it was imperative to do a study with high fat diet fed mice. Study 3 was conducted using such a diet (Bio-Serve Cat# 534282, 36% fat). After 11 weeks, the high fat diet was replaced with the standard laboratory diet. […] However, starting at 14 weeks after switching to the standard laboratory diet, there is a trend in both the DBP groups for less weight gain compared to the placebo group. […] Thus, it is possible that the DBPs, especially the 3-OH-DBP, may have the potential to control body weight gain in individuals on fatty diet as well, though at a slower pace than in individuals on normal diet.

| Compound | weight gained in 90 days ([1]; 10 mg/kg body weight in DMSO/corn oil, intragastric, standard laboratory diet, 90 days) | overt signs of health compromise ([1]; 10 mg/kg body weight, 12 weeks) | age-dependent gain in body weight ([1]; standard laboratory diet/conditions) | less body weight gain [2] | less gain in body weight [2] | less weight gain [2] | trend for less weight gain compared to placebo [3] |
| --- | --- | --- | --- | --- | --- | --- | --- |
| O=c1oc2cc(O)ccc2c2ccc(O)cc12 [3,8-(OH)2-DBP, 3,8-dihydroxy-dibenzo-α-pyrone] | about 7.5% | no overt signs of health compromise | significant decrease | about 50% | ~40% | about 10% |  |
| O=c1oc2cc(O)ccc2c2ccccc12 [3-OH-DBP, 3-hydroxy-dibenzo-α-pyrone] |  |  |  | about 50% | about 45% | about 45% | especially prominent |
